Laboratory results as given in ChEMBL document CHEMBL1141339, “Studies on terpenoids produced by actinomycetes: oxaloterpins A, B, C, D, and E, diterpenes from Streptomyces sp. KO-3988” (2007).

Key:
Bacillus subtilis = experiment: Antibacterial activity against Bacillus subtilis ATCC 43223; assay type: functional
Staphylococcus aureus = experiment: Antibacterial activity against Staphylococcus aureus ATCC 29213; assay type: functional

With C=C[C@@]1(C)CC=C2[C@@H](CC[C@@H]3C(C)(C)[C@H](OC(=O)C(=O)N(O)C(C)=O)CC[C@@]23C)C1 [OXALOTERPIN A] the IC (Bacillus subtilis) was 1.9 nmol/mL and the IC (Staphylococcus aureus) was 3.7 nmol/mL.
